# Test results taken from patent publication US11622964B2, “Method for destroying cellular mechanical homeostasis and promoting regeneration and repair of tissues and organs, and use thereof” (INSTITUTE OF ZOOLOGY, CHINESE ACADEMY OF SCIENCES, priority 2018, dated 2023).
# Tests used:
# [1] = tested on: bile duct ligation-induced fibrosis; test: Bile duct ligation-induced hepatic fibrosis model; format: in vivo, mice
# Method: The ICR, C57Bl/6 mice used in the experiment are purchased from SPF (Beijing) Biotechnology Co., Ltd.; elbow tweezers, finger tweezers, scissors, needle holders, suture needles, suture threads are purchased from Asone Trading Co., Ltd.; antibiotics are purchased from Gibco (15240-062). 8 week-old female mice are used, and they are fasted for 24 hours before the experiment. The mice are anesthetized with 5% chloral hydrate, and intraperitoneally injected with 8 ml/kg. The mice are fixed after anesthesia, and an incision is made in the abdomen to expose the organs. The duodenum of the stomach end is found and gently pulled to find the bile duct, carefully peeling off the bile duct with tweezers, ligating the bile duct with suture thread, then adding antibiotics, and suturing to close the abdominal cavity. The mice are fasted for 12 hours after surgery. 14-20 days after surgery, the skin of the mice is observed to be yellow-green, and drug is administered to mice for treatment. The mice in the modeling group are evenly divided into two groups, and the mice of experimental group are intraperitoneally injected with (−)-blebbistatin. As for the administration method, (−)-blebbistatin is dissolved in DMSO; sequentially adding 2-5% DMSO (final concentration, volume ratio)+30% PEG400 (final concentration, volume ratio)+2% Tween 80 (final concentration, volume ratio), the mice of the control group are injected with a solvent without the small molecule but containing an equal amount of DMSO (denoted as “Con”).
# [2] = tested on: mouse embryonic fibroblasts (MEFs); test: TGF-β1-induced transformation of mouse embryonic fibroblasts into myofibroblasts; format: cell-based
# Description: In this example, cell models for in vitro fibrosis are respectively built to activate mouse hepatic stellate Cells (mHSCs, FIG. 13(B)), mouse embryonic fibroblasts (MEFs FIG. 13(C)), mouse adult liver, lung, and heart-derived primary mesenchymal cells (priMCs, FIG. 13(D)), and human hepatic stellate cells (hLX-2, FIG. 13(E)) into myofibroblasts through the induction of TGF-β1. The specific experimental procedure is as shown in FIG. 9A: a medium containing 10% serum is used for the initial cell culture; after 24 hours the medium is replaced with low serum medium (or pre-starvation treatment for 16 hours) while adding 3 ng/ml TGF-β1 with DMSO or Bleb (20 μM); after 7 days the expression of myofibroblast activation marker protein (Acta2), collagen (Col1a1, Col1a2, Col3a1, and Col1a2), and matrix metalloproteinases and inhibitors (collagenases: MmP8, and MmP13; gelatinases: MmP2, and MmP9; a metalloproteinase inhibitor: Timp1/2/3) are identified.
# [3] = tested on: bleomycin-induced skin sclerosis; test: Bleomycin-induced scleroderma model; format: in vivo, mice; conditions: 1-3 mg/kg/day intraperitoneal
# Description: Scleroderma is a connective tissue disease characterized by localized or diffuse fibrosis of the skin and internal organs, thereby hardening and shrinking. The disease may cause multisystem injury, its exact cause and pathogenesis are still unclear, and there is no effective treatment means. […] One week after injection of bleomycin, the skin at the injection site on the back of mice begins to thicken and harden, and has poor elasticity; there is no change in hair growth until the end of the injection; meanwhile, induration and incrustation occurs at the injection site, accompanying with superficial ulcers. As for the shaved injection area on the back of the mice in the saline control group, the hair grows continuously, and no significant skin hardening and thickening phenomenon is observed, as shown in FIG. 7B. Treatment group (Bleb): intraperitoneal administration of myosin inhibitor (−)-blebbistatin (1-3 mg/kg/day, dissolved in 2-5% DMSO+30% PEG400+2% Tween 80+ddH2O); control group (con): without (−)-blebbistatin but containing the same amount of DMSO. […] Further experiments confirm that the myosin inhibitor (−)-blebbistatin promotes melanin accumulation in the induration zone and the growth of new hair, as shown in FIG. 7C.
# [4] = tested on: human embryonic hepatocytes; test: In vitro amplification of human embryonic hepatocytes; format: cell-based; conditions: for cell amplification multiple: 12 days of passage culture (3 generations)
# Method: Resuscitation of Human Embryonic Hepatocytes: human embryonic hepatocytes are removed from a liquid nitrogen tank (aborted fetus, frozen storage date is Jan. 15, 2014, frozen stock solution is cell banker 2, frozen cell number is 2×10^7/tube), quickly placing in a 37° C. water bath; and after melting the cells are immediately inhaled into a 15 ml centrifuge tube containing 5 ml of hepatocyte medium (control group), centrifuging at 50 g, 4° C. for 5 min; the supernatant is discarded, and the cells are resuspended in 500 ul hepatocyte medium and calculated as 1.16×10^6 with a cell recovery rate of 5.8%.
# Inoculation of Human Embryonic Hepatocytes: inoculation density is 1×10^5/24 well plate, adding 500 μl hepatocyte medium (control group), hepatocyte medium containing 10 μM small molecules, and hepatocyte medium containing 20 μM small molecules respectively; 24 hours after inoculating, 3 wells of cells in each group are digested respectively to count the number of the cells, then calculating the cell adherent rate. 72 hours after inoculating, 3 wells of cells in each group are digested respectively to count the number of the cells. Multiple of the change of cell number may be obtained through dividing the number of cells at 72 hours after inoculation by the number of cells at 24 hours after inoculation. A portion of the cells per well (⅖ of the cell count) are taken for RNA extraction so as to detect human hepatocyte-related gene expression.
# The First Passage of Human Embryonic Hepatocytes: cells are respectively inoculated into a 24-well plate coated with rat tail collagen (as described above), and the inoculum density is ⅗ of the number of cells after 72 hours of primary culture; 3 duplicate wells per group. After 72 hours of cell culture, the cells are digested to count the number. Multiple of the first passage amplification may be obtained through dividing the counted number of cells by the number of cells at the time of inoculation. A portion of the cells per well (⅖ of the cell count) are taken for RNA extraction so as to detect human hepatocyte-related gene expression.
# The Second Passage of Human Embryonic Hepatocytes: cells are respectively inoculated into a 24-well plate coated with rat tail collagen (as described above), and the inoculum density is ⅗ of the number of cells after 72 hours of the first passage culture. […] After changing the medium every 2 days and continuing to culture for 144 hours (6 days), the cells are digested and counted. Multiple of the second passage amplification may be obtained through dividing the counted number of cells by the number of cells at the time of inoculation. […]
compound,measurement,setting,value
Cc1ccc2c(c1)C(=O)[C@]1(O)CCN(c3ccccc3)C1=N2 [(−)-blebbistatin],accumulation of collagenous fibers (Sirius Red),[1]; after 15 days of treatment,significantly inhibited
same,proliferation of myofibroblasts (α-SMA staining),[1]; after 15 days of treatment,significantly inhibited
same,accumulation of collagenous fibers (Sirius Red),[1]; after 30 days of treatment,significantly inhibits
same,hepatocyte proliferation (Ki-67 staining),[1]; during the bile duct ligation process,promotes
same,state of the mice,[1]; intraperitoneal injection,more active and energetic
same,TGF-β1 induced transformation into myofibroblasts and extracellular matrix synthesis,"[2]; 20 μM, 3 ng/ml TGF-β1, 7 days",significantly inhibits
same,stretched state / fibrous morphology of MEFs,"[2]; compared with DMSO, S-Bleb-OB 20 μM",may destroy the stretched state
same,TGF-β1-induced myofibroblast activation,"[2]; scheme as Example 9-1, S-Bleb-OB 20 μM",have an inhibitory effect
same,FGF9 expression (immunofluorescence),[3],more FGF9 is expressed
same,KRT17 positive cells relative to KRT18 positive cells (immunostaining),[3],much more
same,NeuN expression in the induration zone (neural fate),[3],expressed in some cells
same,accumulation of mesenchymal fibers (H&E and Masson staining),[3],significantly reduces
same,epidermal and dermal thickness,[3],significantly reduces
same,hair follicle cell proliferation (Ki-67 staining),[3],promotes
same,hair follicle regeneration (KRT17/PCNA co-immunostaining),[3],promotes hair follicle regeneration
same,melanin accumulation in the induration zone and growth of new hair,[3],promotes
same,number of hair follicles or glands,[3],promotes
same,degree of induration and incrustation,[3]; after 3 weeks of treatment,significantly reduced
same,cell amplification multiple,[4]; 20 μM Bleb medium,about 13 times
same,cell amplification multiple,[4]; 10 μm small-molecule medium,about 22.1 times
same,expression of human hepatocyte-specific genes ALB and AFP (real-time quantitative PCR),[4]; 12 days of passage culture in 10 μM and 20 μM small molecule media,still express human hepatocyte-specific genes
same,cell morphology,[4]; after 12 days of passage culture in small molecule medium,typical hepatocyte morphology
